Patent US20110081362A1, “TREATMENT OF CANCER” (THE BRIGHAM AND WOMEN'S HOSPITAL, INC., priority 2008, published 2011)
“Also recorded” adds a separate entry of the source.

Legend:
MDM2 and p21 = experiment: Western blot of MDM2 and p21 in response to nutlin-3; format: cell-based, human; conditions: 2 days post treatment
Text: D. Top, Western blots of MDM2 protein knockdown in HCC1954 cells and HMECs by MDM2 shRNAs (4 days post-infection) as indicated in FIG. 4E.
The following primary and secondary antibodies were used for immunoblotting with the indicated dilutions: rabbit anti-Rbx1 and mouse anti-PRPS2 (1:500, Abcam), rabbit anti-MYPT1 (PPP1R12A gene product, 1:500, Upstate), mouse anti-tubulin and rabbit anti-GAPDH (1:2000, Sigma), mouse anti MDM2 (1:500, Santa Cruz), rabbit anti-BUB1 (1:500, Bethyl), mouse anti-p53 DO-1 and mouse anti-p21 (1:500, Calbiochem), goat anti-rabbit-HRP (1:5000, Jackson ImmunoResearch), and goat anti-mouse-HRP (1:5000, Jackson ImmunoResearch). Positive and negative siRNA controls, including siLUC, siTOX, siGLO duplexes and a PLK1 SMARTpool, were purchased from Dharmacon.

[1] = test system: HMECs, HCT116, HCC1954 and DLD-1 cells; experiment: Cell viability after nutlin-3 treatment; format: cell-based, human; conditions: 4 days of nutlin-3 treatment; HMECs and HCT116 p53 wild-type, HCC1954 and DLD-1 p53 mutant
Experimental: Cell viability is reflective of their p53 status (HMECs and HCT116 cells, p53 wild-type; HCC1954 and DLD-1 cells, p53 mutant). Cell viability was measured after 4 days of nutlin-3 treatment (*, P<0.05). ctrl, control.
Cells were infected in triplicate in 96-well or 24-well plates with retroviruses of individual shRNAs as described above, and the media was replaced 24 h after infection. On days 2, 6, or 9 post-infection, cell viability was measured using CellTiter-Glo reagent (Promega) per manufacturer's instruction on a Wallac Victor2 plate reader (Perkin Elmer).

Question: What does the source list for `COc1ccc(C2=N[C@@H](c3ccc(Cl)cc3)[C@@H](c3ccc(Cl)cc3)N2C(=O)N2CCNC(=O)C2)c(OC(C)C)c1` [nutlin-3]?
Answer: MDM2 and p21 protein induction (MDM2 and p21): MDM2 and p21 induction; Cell viability, sensitivity to nutlin-3 [1]: recapitulating the sensitivity of these cells to MDM2 inactivation; also recorded: Differential sensitivity of the four cell lines
